Assay results reported in patent US20150274690A1, “Strigolactone Compositions And Uses Thereof” (Asilomar Bio, Inc., priority 2013, published 2015).

How the values were obtained:
Striga hermonthica seeds = conditions: 10^-8 M concentrations; cited from earlier work
Seeds of O. cumana = test: Germination triggering of parasitic weed seeds; type: in vivo; conditions: 48 hours post-treatment; AB01 compared with 5-dS
Experimental: Seeds of O. cumana were primed by incubation on glass fiber filters in darkness at room temperature for 3 days. Specified concentrations of AB01 or 5-dS were applied and seeds were monitored at 48 hours post-treatment. Germination was evident by appearance of haustoria. Experiments were performed in triplicate.

Striga = test: Field trial in Striga infested fields, Siaya County, Kenya; type: in vivo; conditions: 1 gram per acre sprayed 1 week prior to planting
Experimental: Field trial was performed from August 2013 to January 2014 in Siaya County, Kenya. AB01 treated plots were sprayed with a 1 gram per acre dose 1 week prior to planting. Treatment was accomplished by resuspending solid AB01 in 1 mL of acetone, and diluting in 4000 L of water. 3 replicate treated and untreated plots (100 m2 each) were performed. […] (C) The biomass of Striga from each plot was collected and measured after harvest.

Wheat = test: Drought tolerance in greenhouse wheat; type: in vivo; conditions: 1 mg in 100 mL water; irrigation stopped; 7 days post treatment
Experimental: Wheat was grown in greenhouse conditions from seed for 6 weeks with adequate irrigation. Plants were treated with 1 mg of AB01 resuspended in acetone and diluted in 100 mL water, or mock treated as a control. Irrigation was stopped and plants monitored for symptoms of drought stress.

Seeds of Striga asiatica = test: Triggering Striga germination (seed germination bioassay); type: in vivo; conditions: for bioactivity: induction of Striga germination (in words): radicle emergence from seeds
Experimental: (B) Bioactivity of synthetic SL. Seeds of Striga asiatica were exposed to SL (right) or a mock treatment (left). […] (C) Synthetic biological pathway for the production of SL in yeast, consisting of enzymes of plant and microbial origin. We tested the ability of AB01 to trigger the germination of Striga seeds. Seeds of Striga asiatica were conditioned by incubation in the dark at 30 degrees for 7 days, and dilutions of the AB01 material in water were applied. We observed that concentrations of 1 nanogram per liter and greater were able to trigger germination of approximately 30% of the seeds, which is similar to published efficiencies and activity for plant-derived strigolactone (FIG. 1A-B).

[1] = tested on: corn (Dekalb hybrid 68-05); test: Corn field trial, Hays County, Tex., not irrigated; type: in vivo
Experimental: Field trial was performed from April to July 2014 in Hays County, Tex. Dekalb hybrid 68-05 was planted at a density of 25,000 plants per acre (30″rows with 8″spacing). The field was top-dressed with 80 lbs/ac nitrogen. The field was not irrigated. AB01 treated plots were sprayed with a 2 gram per acre dose at the tasseling (VT) stage. Spraying was accomplished by resuspending solid AB01 in 0.5 mL of acetone, and diluting in water for a spray volume of 1 gallon per 500 square feet. Experiments were performed in triplicate […] The fraction of fertilized ears was measured by visual inspection of the ear silk at the R2-R3 stage. Unfertilized silks that appear yellow/green, while fertilized silks appear reddish brown. Completely unfertilized ears have silks that are completely yellow/green, fertilized ears appear brown, while ears with an incomplete degree of fertilized silks have a mixed population of silks. […] Ears were visually inspected at harvest to monitor kernel set (the number of fully formed kernels in the mature ear). […] Ears volume was measured in the field at the R3 stage to calculate ear volume. The length and circumference of each ear was measure, and volume was calculated by treating the ear as a cylinder. Approximately 100 ears from each plot were measured. […] After harvest, ears were shelled and kernels counted and weighed to quantitate the ‘thousand kernel weight’ (TKW), or average mass of kernels in the trial. AB01 treated plots yielded kernels averaging 30% higher mass than control plots. Ears from control and treated plots were harvested, shelled, and moisture tested to quantitate dry mass. Control plots averaged 120 bushels per acre, while AB01 treated plots averaged 143 bushels per acre, a 19% increase. Grain yield is calculated at 15% moisture, a standard measure of harvest output.

Tomato seedlings = test: Salinity tolerance in tomato seedlings; type: in vivo; conditions: 10 mg/mL; 29.2 g/L NaCl irrigation 24 hours after treatment; 6 hours after salt irrigation
Experimental: Tomato seedlings were treated with 10 mg/mL AB01 or mock treated. 24 hours after treatment, they were irrigated with 250 mL water containing 29.2 g/L salt (NaCl).

Alfalfa [2] = test: Drought tolerance in alfalfa seedlings; type: in vivo; conditions: 1 mg/mL; irrigation stopped; approximately 7 days post-treatment
Experimental: Alfalfa was grown from seeds for 14 days. Seedlings were treated with 1 mg/mL AB01 or mock treated. Irrigation was stopped after treatment and seedlings were monitored for symptoms of water limitation stress.

cut flowers = test: Vase life extension of cut flowers; type: in vivo
Experimental: This example determines the effect of the application of a plant propagation material comprising strigolactone or analogs or mimics thereof on the onset of water-stress symptoms in cut flowers during storage, shipping, and/or life in retail or consumer environment. We test a wide range of concentrations to focus our investigations of the effects of the plant propagation material on cut flowers. Indicators of water-limitation stress in flowers are measured (approximately daily). We take cut flowers, apply a plant propagation material in irrigation water, and place in a normal storage environment (e.g., regular day-night cycles, room temperature). The concentration of the strigolactone or analog or mimic thereof in the plant propagation material spanned a concentration range from 1 gram per liter to 1 picogram per liter. We then monitor plants daily for the presence of water stress indicators and shelf life, such as flower and leaf rolling (wilting), turgor of stems, chlorophyll content, and loss of petals.
Various concentrations of the strigolactone mimic were added to the irrigation water of the cut flowers. The vase life for cut flowers treated with water-only was approximately 4 days, whereas the vase life for the cut flowers treated with the plant propagation material was approximately 6-7 days.

[3] = tested on: Dekalb 67-86 RR corn seedlings; test: Acute water stress in corn seedlings (leaf rolling score); type: in vivo; conditions: 40 mL of 0.1 mM or 1.0 mM; 6th day without irrigation
Experimental: Corn seedlings were scored as unstressed, moderately water stressed and severely water stressed as measured by visual inspection of leaf rolling, a response of corn to water stress. Dekalb 67-86 RR corn seeds were planted and then irrigated through 7 days after emergence in a greenhouse setting. Seedlings were then treated with 40 mL of water, 0.1 mM AB01 or 1.0 mM AB01 and irrigation ceased. On the 6th day without irrigation, seedlings were scored for water stress. Seedlings with open leaves were scored as unstressed; seedlings with partial leaf rolling were scored as moderately stressed; seedlings with completely rolled leaves were scored as severely stressed.

[4] = tested on: A. thaliana mutants lacking MAXI cytochrome P450 activity; test: Complementation of Arabidopsis mutant deficient in strigolactone biosynthesis; type: in vivo, Arabidopsis thaliana; conditions: 1 uM as an irrigation supplement
Experimental: To further validate the bioactivity of AB01 we tested whether the compound could complement mutants of the model plant Arabidopsis thaliana that are deficient in strigolactone biosynthesis. […] We grew MAXI A. thaliana under standard conditions and added 1 uM AB01 as an irrigation supplement, or a mock treatment. […] Thus, the synthetic AB01 is sufficiently similar to strigolactone to both to trigger Striga germination as well as substitute for the natural compound in a model plant.

Alfalfa [5] = test: Salinity tolerance in alfalfa seedlings; type: in vivo; conditions: 1 mg/mL; irrigated every 48 hours with 35 g/L NaCl; after 5 days
Experimental: Alfalfa was grown from seeds for 14 days. Seedlings were treated with 1 mg/mL AB01 or mock treated. After treatment, plants were irrigated with 100 mL water containing 35 g/L dissolved salt (NaCl). Irrigation was performed every 48 hours and plants monitored for symptoms of salinity stress.

CC1=C[C@H](O/C=C2/C(=O)O[C@@H]3C4=C(C[C@H]23)C(O)CCC4(C)C)OC1=O (single isomer, unassigned; (+)) [(+)-strigol, (+)-Strigol]
activity in germination studies of Striga hermonthica seeds (Striga hermonthica seeds): 93%

CC1=C[C@H](O/C=C2/C(=O)O[C@@H]3C4=C(CCCC4(C)C)CC23)OC1=O (stereo partly shown) [5-dS, 5-deoxystrigol, reference compound]
germination triggering efficiency (appearance of haustoria) (Seeds of O. cumana): Significant differences in germination triggering efficiency

CC1=CC(O/C=C2\C(=O)O[C@]3(C)CCC4C(C)(C)CCC[C@]4(C)[C@@H]23)OC1=O (stereo partly shown) [AB01]
Striga emergence and Striga-related stress in plots (Striga): few signs of Striga-related stress and parasite emergence | biomass of Striga per plot after harvest (Striga): significant reduction in the mass of Striga present | count of emergent Striga per plot (Striga): few parasites in treated plots | increase of grain yields compared to untreated plots (Striga): 25% | symptoms of drought stress (wilting) (Wheat): appeared vigourous | fraction of Striga seeds triggered to germinate (Seeds of Striga asiatica; at 1 nanogram per liter and greater): approximately 30% | concentrations able to trigger germination of Striga seeds (Seeds of Striga asiatica; dilutions in water, seeds conditioned in the dark at 30 degrees for 7 days): ≥ 1 nanogram per liter | bioactivity: induction of Striga germination (in words) (Seeds of Striga asiatica): graded dose-response behavior | bioactivity: induction of Striga germination (in words) (Seeds of Striga asiatica; listed as Synthetic SL): potent bioactivity, with nanograms of material inducing germination of Striga seeds | bioactivity: induction of Striga germination (in words) (Seeds of Striga asiatica; listed as synthetic SL): displayed bioactivity | bioactivity: induction of Striga germination (in words) (Seeds of Striga asiatica; listed as synthetically produced SL): effective at germinating seeds of Striga asiatica | increase of harvest grain yield over control plots ([1]; 2 gram per acre spray at VT): 19% | average kernel mass (thousand kernel weight), higher than control plots ([1]; 2 gram per acre spray at VT, after harvest): 30% | harvest grain yield ([1]; 2 gram per acre spray at VT, calculated at 15% moisture, control plots 120): 143 bushels per acre | ear volume ([1]; 2 gram per acre spray at VT, measured at R3 stage, vs mock): significantly higher volumes | kernel set at harvest ([1]; 2 gram per acre spray at VT, visual inspection, vs mock): more complete kernel set and few signs of kernel abortion | fraction of fertilized / unfertilized ears ([1]; 2 gram per acre spray at tasseling (VT), ear silk inspected at R2-R3 stage, vs mock): decreased the fraction of unfertilized ears while increasing the fraction of fertilized ears | symptoms of salinity shock (wilting) (Tomato seedlings): appeared unstressed | germination triggering efficiency (appearance of haustoria) (Seeds of O. cumana): Significant differences in germination triggering efficiency | appearance of seedlings under water limitation stress (Alfalfa [2]): treated seedlings appeared robust | vase life of cut flowers (cut flowers; added to irrigation water, various concentrations, water-only approximately 4 days): 6 to 7 days | vase life extension (cut flowers; versus water-only control): 50-60% | fraction of seedlings scored unstressed / severely water stressed [3]: decreased the fraction of severely stressed seedlings while increasing the fraction of unstressed seedlings in a dose-dependent manner | impact on phenotype of strigolactone-deficient mutant [4]: visible impact on the phenotype of the mutant | symptoms of salinity stress (chlorosis, vigor) (Alfalfa [5]): displayed significantly higher vigor

CC1=CC(OC=C2C(=O)OC3C4=C(CC23)C(O)CCC4(C)C)OC1=O (stereo not drawn) [ent-strigol]
activity in germination studies of Striga hermonthica seeds (Striga hermonthica seeds): 22%
